# Source: patent publication US20260053861A1, “CELL COMPOSITIONS AND METHODS OF USING THE SAME” (THE REGENTS OF THE UNIVERSITY OF CALIFORNIA, priority 2022, published 2026)
# Structures can show the parent of a compound that is named as a salt.
# System: hPSC-SCs
# Conditions: not given
row,SMILES,z.score.t
1,CC=CC(=O)N(CC)c1ccccc1C [Crotamiton],−1.426
2,C[C@@H]1C[C@@H]([C@H](O)CC2CC(=O)NC(=O)C2)C(=O)[C@@H](C)C1 [Cycloheximide],−2.003
3,COc1ccccc1N1CCN(CCCCNC(=O)c2ccc3ccccc3c2)CC1.Cl.Cl [DO 897/99],−0.4139
4,COc1cccc2c1C(=O)c1c(O)c3c(c(O)c1C2=O)C[C@@](O)(C(C)=O)C[C@@H]3O[C@H]1C[C@H](N)[C@H](O)[C@H](C)O1 [Daunorubicin hydrochloride],−1.999
5,CC(=O)N(O)CCCCCNC(=O)CCC(=O)N(O)CCCCCNC(=O)CCC(=O)N(O)CCCCCN [Deferoxamine mesylate],0.557
6,CC(=O)O[C@H]1CC[C@@]2(C)C(=CC[C@@H]3[C@@H]2CC[C@]2(C)C(=O)CC[C@@H]32)C1 [Dehydroisoandosterone 3-acetate],0.7349
7,CCN1C[C@]2(COC)CC[C@H](OC)[C@]34C5C[C@@H]6[C@@H](OC)C[C@@]7(OCO[C@@]7(C13)[C@@H](O)C24)C5[C@H]6OC (stereo partly shown) [Delcorine],−0.9741
8,CCN1C[C@]2(COC)CC[C@H](O)[C@]34C1[C@@](O)([C@@H](OC)[C@H]23)[C@@]1(O)C[C@H](OC)[C@H]2C[C@@H]4[C@@H]1[C@H]2OC [Delsoline],1.566
9,CCN1C[C@]2(C)CC[C@H](OC)[C@@]34C1[C@]1(OCO[C@@]15C[C@H](OC)[C@H]1C[C@]3(O)[C@@H]5[C@H]1OC)[C@@H](OC(C)=O)[C@H]24 [Deltaline],0.1693
10,CN(CCCCCCCCCCN(C)C(=O)Oc1cccc([N+](C)(C)C)c1)C(=O)Oc1cccc([N+](C)(C)C)c1 [Demecarium bromide],1.211
11,C[C@]12CC[C@H]3[C@@H](CCC4=CC(=O)CC[C@@]43C)[C@@H]1CC[C@@H]2C(=O)CO [Deoxycorticosterone],−1.303
12,C[C@]12CC[C@H](O)C[C@H]1CC[C@@H]1[C@@H]2CC[C@]2(C)[C@@H](C3=CC(=O)OC3)CC[C@]12O [Digitoxigenin],−2.008
13,C[C@H]1O[C@@H](O[C@H]2[C@@H](O)C[C@H](O[C@H]3[C@@H](O)C[C@H](O[C@H]4CC[C@@]5(C)[C@H](CC[C@@H]6[C@@H]5C[C@@H](O)[C@]5(C)[C@@H](C7=CC(=O)OC7)CC[C@]65O)C4)O[C@@H]3C)O[C@@H]2C)C[C@H](O)[C@@H]1O [Digoxin],−2.04

# Same assay, conditions: HTS viability of hPSC-SCs in the presence of 30 mM glucose; Prestwick library; Table S4
row,SMILES,z.score.t
1,COC(=O)[C@H]1[C@H]2C[C@H]3c4[nH]c5ccccc5c4CCN3C[C@@H]2CC[C@@H]1O.Cl [Corynanthine hydrochloride],1.095
2,O=C(O)c1cc(=O)c2c(OCC(O)COc3cccc4oc(C(=O)O)cc(=O)c34)cccc2o1 [Cromolyn disodium salt],0.557
3,CN1CCN(C(c2ccccc2)c2ccccc2)CC1 [Cyclizine hydrochloride],0.5437
4,CN(C)CCC=C1c2ccccc2C=Cc2ccccc21 [Cyclobenzaprine hydrochloride],−0.1641
5,NS(=O)(=O)c1cc2c(cc1Cl)NC(CC1CCCC1)NS2(=O)=O (stereo not shown) [Cyclopenthiazide],2.573
6,CN(C)CCOC(=O)C(c1ccccc1)C1(O)CCCC1 (stereo not shown) [Cyclopentolate hydrochloride],−0.5614
7,CN1CCC(=C2c3ccccc3C=Cc3ccccc32)CC1 [Cyproheptadine hydrochloride],0.4486
8,CC(=O)O[C@]1(C(C)=O)CC[C@H]2[C@@H]3C=C(Cl)C4=CC(=O)[C@@H]5C[C@@H]5[C@]4(C)[C@H]3CC[C@@]21C [Cyproterone acetate],−0.5219
9,N[C@@H]1CONC1=O [D-cycloserine],0.9162
10,CN(C)/N=N/c1[nH]cnc1C(N)=O [Dacarbazine],−0.6301
11,C#C[C@]1(O)CC[C@H]2[C@@H]3CCC4=Cc5oncc5C[C@]4(C)[C@H]3CC[C@@]21C [Danazol],0.1149
12,O=C1CN(/N=C/c2ccc(-c3ccc([N+](=O)[O-])cc3)o2)C(O)=N1 [Dantrolene sodium salt],1.306
13,Nc1ccc(S(=O)(=O)c2ccc(N)cc2)cc1 [Dapsone],1.024
14,N=C(N)N1CCc2ccccc2C1 [Debrisoquin sulfate],0.6578
15,C[N+](C)(C)CCCCCCCCCC[N+](C)(C)C [Decamethonium bromide],−1.558
16,C[C@H](CCC(=O)O)[C@H]1CC[C@H]2[C@@H]3C(=O)C[C@@H]4CC(=O)CC[C@]4(C)[C@H]3CC(=O)[C@]12C [Dehydrocholic acid],1.472
17,CN(C)[C@@H]1C(O)=C(C(N)=O)C(=O)[C@@]2(O)C(O)=C3C(=O)c4c(O)ccc(Cl)c4[C@@H](O)[C@H]3C[C@@H]12 [Demeclocycline hydrochloride],0.4318
18,CC[N+](CC)(CC(=O)Nc1c(C)cccc1C)Cc1ccccc1 [Denatonium benzoate],−1.472

row,SMILES,z.score.t
1,Cc1cc(N)c2ccccc2[n+]1CCCCCCCCCC[n+]1c(C)cc(N)c2ccccc21 [Dequalinium dichloride],0.5046
2,CNCCCN1c2ccccc2CCc2ccccc21 [Desipramine hydrochloride],−1.014
3,CC(=O)OCC(=O)[C@@]1(O)[C@H](C)C[C@H]2[C@@H]3CCC4=CC(=O)C=C[C@]4(C)[C@@]3(F)[C@@H](O)C[C@@]21C [Dexamethasone acetate],0.4486
4,CC1=NS(=O)(=O)c2cc(Cl)ccc2N1 [Diazoxide],0.4626
5,CCCCOc1cc(C(=O)NCCN(CC)CC)c2ccccc2n1 [Dibucaine],−1.214
6,NS(=O)(=O)c1cc(Cl)c(Cl)c(S(N)(=O)=O)c1 [Dichlorphenamide],−0.8317
7,O=C(O)Cc1ccccc1Nc1c(Cl)cccc1Cl [Diclofenac sodium],0.563
8,Cc1onc(-c2c(Cl)cccc2Cl)c1C(=O)N[C@@H]1C(=O)N2[C@@H]1SC(C)(C)[C@@H]2C(=O)O [Dicloxacillin sodium salt],1.942
9,O=c1oc2ccccc2c(O)c1Cc1c(O)c2ccccc2oc1=O [Dicumarol],−0.3242
10,CCN(CC)CCOC(=O)C1(C2CCCCC2)CCCCC1 [Dicyclomine hydrochloride],−0.2865
11,O=c1[nH]cnc2c1ncn2[C@H]1CC[C@@H](CO)O1 [Didanosine],−0.07933
12,C/C=C(/C(=C/C)c1ccc(O)cc1)c1ccc(O)cc1 [Dienestrol],−1.123
13,CCN(CC)C(=O)N1CCN(C)CC1 [Diethylcarbamazine citrate],0.378
14,CC/C(=C(/CC)c1ccc(O)cc1)c1ccc(O)cc1 [Diethylstilbestrol],1.624
15,CC(=O)OCC(=O)[C@@]1(OC(C)=O)[C@@H](C)C[C@H]2[C@@H]3C[C@H](F)C4=CC(=O)C=C[C@]4(C)[C@@]3(F)[C@@H](O)C[C@@]21C [Diflorasone Diacetate],1.72
16,O=C(O)c1cc(-c2ccc(F)cc2F)ccc1O [Diflunisal],0.7162
17,C[C@]12CC[C@H](O)C[C@H]1CC[C@@H]1[C@@H]2C[C@@H](O)[C@]2(C)[C@@H](C3=CC(=O)OC3)CC[C@]12O [Digoxigenin],−2.387
18,CC(C)[C@@]1(NC(=O)[C@@H]2C[C@@H]3c4cccc5[nH]cc(c45)C[C@H]3N(C)C2)O[C@@]2(O)[C@@H]3CCCN3C(=O)[C@H](Cc3ccccc3)N2C1=O [Dihydroergocristine mesylate],−0.3319
